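Test compounds were applied to cells in 96-well plates for 48 hours at 5 doses. GI50: concentration for 50% inhibition of growth.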 The source made the active and inactive calls. No stated cut-off is given here; in the data, active = GI50 up to about 1.1 µM and inactive = higher.
Tests used:
Assay in all cases: inhibition of tumour cell growth, NCI panel, 48 h
CAKI-1 = system: CAKI-1
SNB-19 = system: SNB-19
IGROV-1 = system: IGROV-1
NCI-H226 = system: NCI-H226
RPMI-8226 = system: RPMI-8226
CCRF-CEM = system: CCRF-CEM
EKVX = system: EKVX
T47D = system: T47D
MDA-MB-435 = system: MDA-MB-435
PC-3 = system: PC-3
SR = system: SR
MDA-MB-231 = system: MDA-MB-231
RXF 393 = system: RXF 393
HCT-116 = system: HCT-116
NCI-H23 = system: NCI-H23
SF-268 = system: SF-268
COLO 205 = system: COLO 205
Malme-3M = system: Malme-3M
SK-OV-3 = system: SK-OV-3
HCC 2998 = system: HCC 2998

Structure (SMILES)	GI50 (CAKI-1)	GI50 (SNB-19)	GI50 (IGROV-1)	GI50 (NCI-H226)	GI50 (RPMI-8226)	GI50 (CCRF-CEM)	GI50 (EKVX)	GI50 (T47D)	GI50 (MDA-MB-435)	GI50 (PC-3)	GI50 (SR)	GI50 (MDA-MB-231)	GI50 (RXF 393)	GI50 (HCT-116)	GI50 (NCI-H23)	GI50 (SF-268)	GI50 (COLO 205)	GI50 (Malme-3M)	GI50 (SK-OV-3)	GI50 (HCC 2998)
CSCCC(NCc1c(O)ccc2ccc(=O)oc12)C(=O)O (configuration not stated)	> 100 µM (inactive)	> 100 µM (inactive)	> 100 µM (inactive)	> 100 µM (inactive)	> 100 µM (inactive)	> 100 µM (inactive)	> 100 µM (inactive)	> 100 µM (inactive)	70.8 µM (inactive)	> 100 µM (inactive)	> 100 µM (inactive)	> 100 µM (inactive)	> 100 µM (inactive)	> 100 µM (inactive)	> 100 µM (inactive)	> 100 µM (inactive)	> 100 µM (inactive)	> 100 µM (inactive)	> 100 µM (inactive)	> 100 µM (inactive)
OC(COc1cccc2ccccc12)CN1CCOCC1 (configuration not stated)	> 100 µM (inactive)	> 100 µM (inactive)	39.9 µM (inactive)	> 100 µM (inactive)	> 100 µM (inactive)	> 100 µM (inactive)	95.1 µM (inactive)	> 100 µM (inactive)	> 100 µM (inactive)	> 100 µM (inactive)	> 100 µM (inactive)	> 100 µM (inactive)	> 100 µM (inactive)	> 100 µM (inactive)	> 100 µM (inactive)	> 100 µM (inactive)	> 100 µM (inactive)	> 100 µM (inactive)	> 100 µM (inactive)	> 100 µM (inactive)
Cc1ccc(-c2nc3cc(F)c(N4CCN(C)CC4)cc3[nH]2)cc1	32.1 µM (inactive)	22 µM (inactive)	22.7 µM (inactive)	8.3 µM (inactive)	33.6 µM (inactive)	23.4 µM (inactive)	23.1 µM (inactive)	23 µM (inactive)	22.4 µM (inactive)	24.1 µM (inactive)	32.6 µM (inactive)	71.3 µM (inactive)	18.5 µM (inactive)	19.6 µM (inactive)	22.2 µM (inactive)	15.3 µM (inactive)	15.9 µM (inactive)	15.3 µM (inactive)	23.4 µM (inactive)	11.9 µM (inactive)
N=C(N)NCCCC(NCc1c2ccccc2nc2ccccc12)C(=O)O (configuration not stated)	26.6 µM (inactive)	48.4 µM (inactive)	34.7 µM (inactive)	> 81.8 µM (inactive)	10.4 µM (inactive)	9.55 µM (inactive)	33.1 µM (inactive)	36.2 µM (inactive)	41.8 µM (inactive)	35.2 µM (inactive)	14.3 µM (inactive)	23.8 µM (inactive)	57 µM (inactive)	11.4 µM (inactive)	53.1 µM (inactive)	47.6 µM (inactive)	37.9 µM (inactive)	> 73.1 µM (inactive)	53.1 µM (inactive)	33.5 µM (inactive)
CC(C)(C)OC(=O)NC(Cc1ccccc1)C(=O)OCN1C(=O)C2C3C=CC(C2C1=O)C1C2C(=O)N(COC(=O)C(Cc4ccccc4)NC(=O)OC(C)(C)C)C(=O)C2C31 (configuration not stated)	27.5 µM (inactive)	34.3 µM (inactive)	30.4 µM (inactive)	29.4 µM (inactive)	18.8 µM (inactive)	2.67 µM (inactive)	23.6 µM (inactive)	36.3 µM (inactive)	53.7 µM (inactive)	29.5 µM (inactive)	0.176 µM (active)	29.7 µM (inactive)	22.7 µM (inactive)	19.2 µM (inactive)	38.8 µM (inactive)	38.5 µM (inactive)	8.22 µM (inactive)	39.4 µM (inactive)	37.2 µM (inactive)	40 µM (inactive)
COC1(OC)c2no[n+]([O-])c2CCC1O (configuration not stated)	> 100 µM (inactive)	> 100 µM (inactive)	> 100 µM (inactive)	> 100 µM (inactive)	> 100 µM (inactive)	> 100 µM (inactive)	> 100 µM (inactive)	> 100 µM (inactive)	> 100 µM (inactive)	> 100 µM (inactive)	> 100 µM (inactive)	> 100 µM (inactive)	> 100 µM (inactive)	> 100 µM (inactive)	> 100 µM (inactive)	> 100 µM (inactive)	> 100 µM (inactive)	> 100 µM (inactive)	> 100 µM (inactive)	> 100 µM (inactive)
CN(C)CCNC1=Nc2ccccc2C(=O)N2CSCC12 (configuration not stated)	> 100 µM (inactive)	> 100 µM (inactive)	> 100 µM (inactive)	> 100 µM (inactive)	> 100 µM (inactive)	> 100 µM (inactive)	> 100 µM (inactive)	> 100 µM (inactive)	> 100 µM (inactive)	> 100 µM (inactive)	> 100 µM (inactive)	> 100 µM (inactive)	> 100 µM (inactive)	> 100 µM (inactive)		> 100 µM (inactive)	> 100 µM (inactive)	> 100 µM (inactive)	> 100 µM (inactive)	> 100 µM (inactive)
O=C(O)c1cc2c(s1)C(=O)c1sccc1C2=O	12.4 µM (inactive)	5.48 µM (inactive)	17.1 µM (inactive)	19.6 µM (inactive)	12.7 µM (inactive)	6.84 µM (inactive)	15.7 µM (inactive)	4.97 µM (inactive)	0.774 µM (active)	9.82 µM (inactive)	2.81 µM (inactive)	9.73 µM (inactive)	6.87 µM (inactive)	2.22 µM (inactive)	2.2 µM (inactive)	5.24 µM (inactive)	17.2 µM (inactive)	0.659 µM (active)	20.6 µM (inactive)	18.7 µM (inactive)
Cn1c(=S)c2nc(SCc3cccnc3)[nH]c2n(C)c1=O	> 100 µM (inactive)	> 100 µM (inactive)	> 100 µM (inactive)	> 100 µM (inactive)	> 100 µM (inactive)		> 100 µM (inactive)	> 100 µM (inactive)	> 100 µM (inactive)	> 100 µM (inactive)	> 100 µM (inactive)	> 100 µM (inactive)	> 100 µM (inactive)	> 100 µM (inactive)	> 100 µM (inactive)	> 100 µM (inactive)	> 100 µM (inactive)	93.8 µM (inactive)	> 100 µM (inactive)	> 100 µM (inactive)
CN(C)c1ccc(/C=C/C(=O)CC(=O)/C=C/c2ccc(N(C)C)cc2)cc1	> 100 µM (inactive)	> 100 µM (inactive)	> 100 µM (inactive)	> 100 µM (inactive)	> 100 µM (inactive)	> 100 µM (inactive)	> 100 µM (inactive)	> 100 µM (inactive)	> 100 µM (inactive)	> 100 µM (inactive)	36.2 µM (inactive)	85.1 µM (inactive)	> 100 µM (inactive)	57.3 µM (inactive)		> 100 µM (inactive)	> 100 µM (inactive)	> 100 µM (inactive)	> 100 µM (inactive)	> 100 µM (inactive)

— ChEMBL document CHEMBL1201862, “PubChem BioAssay data set” (2004)
